Values of other authors as cited in patent US12090147B2, “Combination therapy with 2-(4-chlorophenyl)-N-((2-(2,6-dioxopiperidin-3-yl)-1-oxoisoindolin-5-yl)methyl)-2,2-difluoroacetamide” (Celgene Corporation, priority 2019, dated 2024).

System: acute myeloid leukemia (AML) at relapse
Details: administered alone; cited from earlier work

CT-011: anti-PD-1 antibody, a humanized antibody
Response in treating AML at relapse: failed to show response
